From PubChem BioAssay (NCI)
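Test compounds were applied to cells in 96-well plates for 48 hours at 5 doses. TGI: total growth inhibition.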

How the values were obtained:
Test in all cases: NCI-60 cell line screen, 48 h
786-0 renal = system: 786-0 renal
A498 renal = system: A498 renal
A549 NSCLC = system: A549 NSCLC
ACHN renal = system: ACHN renal
BT-549 breast = system: BT-549 breast
CAKI-1 renal = system: CAKI-1 renal
CCRF-CEM leukemia = system: CCRF-CEM leukemia
COLO 205 colon = system: COLO 205 colon
DU-145 prostate = system: DU-145 prostate
EKVX NSCLC = system: EKVX NSCLC
HCC-2998 colon = system: HCC-2998 colon
HCT-116 colon = system: HCT-116 colon
HCT-15 colon = system: HCT-15 colon
HL-60(TB) leukemia = system: HL-60(TB) leukemia
HOP-62 NSCLC = system: HOP-62 NSCLC
HOP-92 NSCLC = system: HOP-92 NSCLC
HS 578T breast = system: HS 578T breast
HT29 colon = system: HT29 colon
IGROV1 ovarian = system: IGROV1 ovarian
K-562 leukemia = system: K-562 leukemia
KM12 colon = system: KM12 colon
LOX IMVI melanoma = system: LOX IMVI melanoma
M14 melanoma = system: M14 melanoma
MALME-3M melanoma = system: MALME-3M melanoma
MCF7 breast = system: MCF7 breast
MDA-MB-231 breast = system: MDA-MB-231 breast
MDA-MB-435 = system: MDA-MB-435
MDA-N = system: MDA-N
MOLT-4 leukemia = system: MOLT-4 leukemia
NCI-H226 lung = system: NCI-H226 lung
NCI-H23 lung = system: NCI-H23 lung
NCI-H460 lung = system: NCI-H460 lung
NCI-H522 lung = system: NCI-H522 lung
NCI/ADR-RES ovarian = system: NCI/ADR-RES ovarian
OVCAR-3 ovarian = system: OVCAR-3 ovarian
OVCAR-4 ovarian = system: OVCAR-4 ovarian
OVCAR-5 ovarian = system: OVCAR-5 ovarian
OVCAR-8 ovarian = system: OVCAR-8 ovarian
PC-3 prostate = system: PC-3 prostate
RPMI-8226 leukemia = system: RPMI-8226 leukemia
RXF 393 renal = system: RXF 393 renal
SF-268 CNS = system: SF-268 CNS
SF-295 CNS = system: SF-295 CNS
SF-539 CNS = system: SF-539 CNS
SK-MEL-2 melanoma = system: SK-MEL-2 melanoma
SK-MEL-28 melanoma = system: SK-MEL-28 melanoma
SK-MEL-5 melanoma = system: SK-MEL-5 melanoma
SK-OV-3 ovarian = system: SK-OV-3 ovarian
SN12C renal = system: SN12C renal
SNB-19 CNS = system: SNB-19 CNS
SNB-75 CNS = system: SNB-75 CNS
SR leukemia = system: SR leukemia
SW-620 colon = system: SW-620 colon
T-47D breast = system: T-47D breast
TK-10 renal = system: TK-10 renal
U251 CNS = system: U251 CNS
UACC-257 melanoma = system: UACC-257 melanoma
UACC-62 melanoma = system: UACC-62 melanoma
UO-31 renal = system: UO-31 renal

Structure (SMILES): Cn1ccnc1Sc1ccc(/C=N/NC(=O)c2ccccc2[N+](=O)[O-])cc1[N+](=O)[O-]
- TGI (786-0 renal): > 100 µM
- TGI (A498 renal): > 100 µM
- TGI (A549 NSCLC): > 100 µM
- TGI (ACHN renal): > 100 µM
- TGI (BT-549 breast): > 100 µM
- TGI (CAKI-1 renal): > 100 µM
- TGI (CCRF-CEM leukemia): > 100 µM
- TGI (COLO 205 colon): > 100 µM
- TGI (DU-145 prostate): > 100 µM
- TGI (EKVX NSCLC): > 100 µM
- TGI (HCC-2998 colon): 95.6 µM
- TGI (HCT-116 colon): > 100 µM
- TGI (HCT-15 colon): > 100 µM
- TGI (HL-60(TB) leukemia): > 100 µM
- TGI (HOP-62 NSCLC): > 100 µM
- TGI (HOP-92 NSCLC): > 100 µM
- TGI (HS 578T breast): > 100 µM
- TGI (HT29 colon): > 100 µM
- TGI (IGROV1 ovarian): > 100 µM
- TGI (K-562 leukemia): > 100 µM
- TGI (KM12 colon): > 100 µM
- TGI (LOX IMVI melanoma): > 100 µM
- TGI (M14 melanoma): > 100 µM
- TGI (MALME-3M melanoma): > 100 µM
- TGI (MCF7 breast): > 100 µM
- TGI (MDA-MB-231 breast): 97.6 µM
- TGI (MDA-MB-435): > 100 µM
- TGI (MDA-N): > 100 µM
- TGI (MOLT-4 leukemia): > 100 µM
- TGI (NCI-H226 lung): > 100 µM
- TGI (NCI-H23 lung): > 100 µM
- TGI (NCI-H460 lung): > 100 µM
- TGI (NCI-H522 lung): > 100 µM
- TGI (NCI/ADR-RES ovarian): > 100 µM
- TGI (OVCAR-3 ovarian): > 100 µM
- TGI (OVCAR-4 ovarian): > 100 µM
- TGI (OVCAR-5 ovarian): > 100 µM
- TGI (OVCAR-8 ovarian): > 100 µM
- TGI (PC-3 prostate): > 100 µM
- TGI (RPMI-8226 leukemia): > 100 µM
- TGI (RXF 393 renal): > 100 µM
- TGI (SF-268 CNS): > 100 µM
- TGI (SF-295 CNS): > 100 µM
- TGI (SF-539 CNS): > 100 µM
- TGI (SK-MEL-2 melanoma): > 100 µM
- TGI (SK-MEL-28 melanoma): > 100 µM
- TGI (SK-MEL-5 melanoma): > 100 µM
- TGI (SK-OV-3 ovarian): > 100 µM
- TGI (SN12C renal): > 100 µM
- TGI (SNB-19 CNS): > 100 µM
- TGI (SNB-75 CNS): > 100 µM
- TGI (SR leukemia): > 100 µM
- TGI (SW-620 colon): > 100 µM
- TGI (T-47D breast): > 100 µM
- TGI (TK-10 renal): > 100 µM
- TGI (U251 CNS): > 100 µM
- TGI (UACC-257 melanoma): > 100 µM
- TGI (UACC-62 melanoma): > 100 µM
- TGI (UO-31 renal): > 100 µM

Structure (SMILES): c1ccc2cc(CN3CCC(C4CCN(Cc5ccc6ccccc6c5)CC4)CC3)ccc2c1
- TGI (786-0 renal): 11.1 µM
- TGI (A498 renal): 26.2 µM
- TGI (A549 NSCLC): 17.1 µM
- TGI (ACHN renal): 17 µM
- TGI (BT-549 breast): 27.4 µM
- TGI (CAKI-1 renal): 15 µM
- TGI (CCRF-CEM leukemia): > 43.4 µM
- TGI (COLO 205 colon): 3.96 µM
- TGI (DU-145 prostate): 38.2 µM
- TGI (EKVX NSCLC): 29.6 µM
- TGI (HCC-2998 colon): 3.13 µM
- TGI (HCT-116 colon): 18.4 µM
- TGI (HCT-15 colon): 15.1 µM
- TGI (HL-60(TB) leukemia): 4.45 µM
- TGI (HOP-62 NSCLC): 7.84 µM
- TGI (HOP-92 NSCLC): 12.2 µM
- TGI (HS 578T breast): 6.6 µM
- TGI (HT29 colon): 6.42 µM
- TGI (IGROV1 ovarian): 22.5 µM
- TGI (K-562 leukemia): > 100 µM
- TGI (KM12 colon): 7.99 µM
- TGI (LOX IMVI melanoma): 13.2 µM
- TGI (M14 melanoma): 3.71 µM
- TGI (MALME-3M melanoma): 3.71 µM
- TGI (MCF7 breast): 8.66 µM
- TGI (MDA-MB-231 breast): 22.1 µM
- TGI (MDA-MB-435): 3.09 µM
- TGI (MDA-N): 3.91 µM
- TGI (MOLT-4 leukemia): 33.3 µM
- TGI (NCI-H226 lung): 33.1 µM
- TGI (NCI-H23 lung): 26.9 µM
- TGI (NCI-H460 lung): 11 µM
- TGI (NCI-H522 lung): 4.28 µM
- TGI (NCI/ADR-RES ovarian): 22.1 µM
- TGI (OVCAR-3 ovarian): 11.1 µM
- TGI (OVCAR-4 ovarian): 21.7 µM
- TGI (OVCAR-5 ovarian): 24.9 µM
- TGI (OVCAR-8 ovarian): 17.9 µM
- TGI (PC-3 prostate): 22.9 µM
- TGI (RPMI-8226 leukemia): 7.44 µM
- TGI (RXF 393 renal): 8.51 µM
- TGI (SF-268 CNS): 25.8 µM
- TGI (SF-295 CNS): 3.74 µM
- TGI (SF-539 CNS): 4.15 µM
- TGI (SK-MEL-2 melanoma): 4.87 µM
- TGI (SK-MEL-28 melanoma): 3.93 µM
- TGI (SK-MEL-5 melanoma): 3.38 µM
- TGI (SK-OV-3 ovarian): 22.4 µM
- TGI (SN12C renal): 44.5 µM
- TGI (SNB-19 CNS): 27.2 µM
- TGI (SNB-75 CNS): 6.8 µM
- TGI (SR leukemia): 15.6 µM
- TGI (SW-620 colon): 15.6 µM
- TGI (T-47D breast): > 22.8 µM
- TGI (TK-10 renal): 13.1 µM
- TGI (U251 CNS): 8.49 µM
- TGI (UACC-257 melanoma): 3.68 µM
- TGI (UACC-62 melanoma): 3.91 µM
- TGI (UO-31 renal): 3.03 µM

Structure (SMILES): CC(C)[Si]1(C(C)C)OCC2OC(N3C(=O)NC(=O)C[C@@H]3C(O)c3ccccc3)CC2O[Si](C(C)C)(C(C)C)O1 (some centres not stated)
- TGI (786-0 renal): 12.5 µM
- TGI (A498 renal): 17.7 µM
- TGI (A549 NSCLC): 24.1 µM
- TGI (ACHN renal): 19.7 µM
- TGI (BT-549 breast): 33.4 µM
- TGI (CAKI-1 renal): 30.7 µM
- TGI (CCRF-CEM leukemia): 8.46 µM
- TGI (COLO 205 colon): 25.8 µM
- TGI (DU-145 prostate): 26.5 µM
- TGI (EKVX NSCLC): 23.4 µM
- TGI (HCC-2998 colon): 4.46 µM
- TGI (HCT-116 colon): 9.79 µM
- TGI (HCT-15 colon): 18.1 µM
- TGI (HL-60(TB) leukemia): 21.6 µM
- TGI (HOP-62 NSCLC): 27.5 µM
- TGI (HOP-92 NSCLC): 20.4 µM
- TGI (HS 578T breast): 8.71 µM
- TGI (HT29 colon): 6.59 µM
- TGI (IGROV1 ovarian): 17.6 µM
- TGI (K-562 leukemia): > 30.2 µM
- TGI (KM12 colon): 7.1 µM
- TGI (LOX IMVI melanoma): 10.7 µM
- TGI (M14 melanoma): 30.1 µM
- TGI (MALME-3M melanoma): 12.8 µM
- TGI (MCF7 breast): 15.2 µM
- TGI (MDA-MB-231 breast): 12.1 µM
- TGI (MDA-MB-435): 18.2 µM
- TGI (MDA-N): 9.61 µM
- TGI (MOLT-4 leukemia): 9.31 µM
- TGI (NCI-H226 lung): 8.9 µM
- TGI (NCI-H23 lung): 21.6 µM
- TGI (NCI-H460 lung): 34.3 µM
- TGI (NCI-H522 lung): 7.77 µM
- TGI (NCI/ADR-RES ovarian): 13.4 µM
- TGI (OVCAR-3 ovarian): 11.4 µM
- TGI (OVCAR-4 ovarian): 14.8 µM
- TGI (OVCAR-5 ovarian): 27.6 µM
- TGI (OVCAR-8 ovarian): 17.3 µM
- TGI (PC-3 prostate): 15.3 µM
- TGI (RPMI-8226 leukemia): 12.2 µM
- TGI (RXF 393 renal): 13.4 µM
- TGI (SF-268 CNS): 10.6 µM
- TGI (SF-295 CNS): 9.97 µM
- TGI (SF-539 CNS): 32.4 µM
- TGI (SK-MEL-2 melanoma): 27.3 µM
- TGI (SK-MEL-28 melanoma): 12.9 µM
- TGI (SK-MEL-5 melanoma): 26.3 µM
- TGI (SK-OV-3 ovarian): 11.8 µM
- TGI (SN12C renal): 12.2 µM
- TGI (SNB-19 CNS): 25.4 µM
- TGI (SNB-75 CNS): 17.6 µM
- TGI (SR leukemia): > 19.8 µM
- TGI (SW-620 colon): 9 µM
- TGI (T-47D breast): 14.7 µM
- TGI (TK-10 renal): 24 µM
- TGI (U251 CNS): 9.06 µM
- TGI (UACC-257 melanoma): 16.5 µM
- TGI (UACC-62 melanoma): 22.4 µM
- TGI (UO-31 renal): 24.8 µM
